Results on four compounds are retold here after ChEMBL document CHEMBL2311401, “Molecular determinants of a selective matrix metalloprotease-12 inhibitor: insights from crystallography and thermodynamic studies” (J Med Chem, 2013).

Test [1] addresses Collagenase 3 (Homo sapiens) (UniProt P45452). Description: Inhibition of human MMP13 prodomain (20 to 272) using Mca-Pro-Leu-Gly-Leu-Dpa-Ala-Arg-NH2 as substrate by spectrophotometry.
Test [2] has as its target Matrix metalloproteinase-14 (Homo sapiens) (UniProt P50281). Briefly: Inhibition of human MMP14 using Mca-Pro-Leu-Gly-Leu-Dpa-Ala-Arg-NH2 as substrate by spectrophotometry.
Test [3] has as its target 72 kDa type IV collagenase (Homo sapiens) (UniProt P08253). Description: Inhibition of human MMP2 using Mca-Pro-Leu-Gly-Leu-Dpa-Ala-Arg-NH2 as substrate by spectrophotometry.
Test [4] concerns the target Stromelysin-1 (Homo sapiens) (UniProt P08254). Description: Inhibition of human MMP3 using Mca-Pro-Leu-Gly-Leu-Dpa-Ala-Arg-NH2 as substrate by spectrophotometry.
Test [5] has as its target Stromelysin-2 (Homo sapiens) (UniProt P09238). Description: Inhibition of human MMP10 using Mca-Pro-Leu-Gly-Leu-Dpa-Ala-Arg-NH2 as substrate by spectrophotometry.
The target in test [6] is Neutrophil collagenase (Homo sapiens) (UniProt P22894). Description: Inhibition of human MMP8 catalytic domain (21 to 261) using Mca-Pro-Leu-Gly-Leu-Dpa-Ala-Arg-NH2 as substrate by spectrophotometry.
Test [7] has as its target Matrix metalloproteinase-9 (Homo sapiens) (UniProt P14780). Briefly: Inhibition of human MMP9 using Mca-Pro-Leu-Gly-Leu-Dpa-Ala-Arg-NH2 as substrate by spectrophotometry.
The target in test [8] is T1, Macrophage metalloelastase (Homo sapiens, UniProt P39900). Description: Binding affinity to human MMP12 catalytic domain (98 to 266) by isothermal titration calorimetry.
Target sequence in this assay (P39900 whole entry, the tested form may be a part): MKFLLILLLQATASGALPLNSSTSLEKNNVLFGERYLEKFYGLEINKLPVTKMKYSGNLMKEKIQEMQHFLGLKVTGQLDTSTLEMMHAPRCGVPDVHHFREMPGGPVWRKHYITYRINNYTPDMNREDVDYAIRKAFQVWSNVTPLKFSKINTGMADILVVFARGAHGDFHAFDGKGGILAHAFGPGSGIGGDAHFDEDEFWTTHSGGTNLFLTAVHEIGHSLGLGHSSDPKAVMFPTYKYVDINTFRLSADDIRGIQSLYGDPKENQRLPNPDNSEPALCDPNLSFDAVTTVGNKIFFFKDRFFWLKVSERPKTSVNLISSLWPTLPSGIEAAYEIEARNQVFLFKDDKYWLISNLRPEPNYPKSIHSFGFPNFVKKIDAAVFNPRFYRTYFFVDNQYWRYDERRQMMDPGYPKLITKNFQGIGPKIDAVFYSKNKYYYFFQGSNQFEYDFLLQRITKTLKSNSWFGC
The target in test [9] is T1, Macrophage metalloelastase. Description: Inhibition of human MMP12 catalytic domain (98 to 266) at pH 6.8 by isothermal titration calorimetry.
Target sequence in this assay (P39900 whole entry, the tested form may be a part): as above
The target of test [10] is T1, Macrophage metalloelastase. Briefly: Inhibition of human MMP12 catalytic domain (98 to 266) at pH 6 to 7 by isothermal titration calorimetry.
Target sequence in this assay (P39900 106-470 limits assumed): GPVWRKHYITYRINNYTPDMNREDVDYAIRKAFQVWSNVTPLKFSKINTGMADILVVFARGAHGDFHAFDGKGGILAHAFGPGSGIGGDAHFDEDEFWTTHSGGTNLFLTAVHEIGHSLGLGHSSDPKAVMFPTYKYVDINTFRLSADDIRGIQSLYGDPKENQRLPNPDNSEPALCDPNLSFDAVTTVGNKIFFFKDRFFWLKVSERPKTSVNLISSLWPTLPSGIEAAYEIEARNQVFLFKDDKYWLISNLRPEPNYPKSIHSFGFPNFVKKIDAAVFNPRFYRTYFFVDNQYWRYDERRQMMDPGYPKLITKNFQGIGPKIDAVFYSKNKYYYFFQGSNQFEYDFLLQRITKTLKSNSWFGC

The structures appear in SMILES notation. The source made the active and inactive calls. The rule behind the calls is not given here.

Sequence of Stromelysin-1 (Homo sapiens) (P08254 100-477 limits assumed): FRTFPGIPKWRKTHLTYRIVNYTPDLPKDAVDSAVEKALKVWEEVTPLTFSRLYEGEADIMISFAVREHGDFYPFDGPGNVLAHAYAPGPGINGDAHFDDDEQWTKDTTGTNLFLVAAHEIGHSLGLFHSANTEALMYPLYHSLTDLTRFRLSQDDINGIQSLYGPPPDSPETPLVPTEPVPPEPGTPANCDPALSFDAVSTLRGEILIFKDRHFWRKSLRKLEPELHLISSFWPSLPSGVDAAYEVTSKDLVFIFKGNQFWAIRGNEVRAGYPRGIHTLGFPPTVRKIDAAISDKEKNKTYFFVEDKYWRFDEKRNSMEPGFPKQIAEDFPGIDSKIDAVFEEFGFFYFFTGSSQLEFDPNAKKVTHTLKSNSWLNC
Sequence of Stromelysin-2 (Homo sapiens) (P09238 99-476 limits assumed): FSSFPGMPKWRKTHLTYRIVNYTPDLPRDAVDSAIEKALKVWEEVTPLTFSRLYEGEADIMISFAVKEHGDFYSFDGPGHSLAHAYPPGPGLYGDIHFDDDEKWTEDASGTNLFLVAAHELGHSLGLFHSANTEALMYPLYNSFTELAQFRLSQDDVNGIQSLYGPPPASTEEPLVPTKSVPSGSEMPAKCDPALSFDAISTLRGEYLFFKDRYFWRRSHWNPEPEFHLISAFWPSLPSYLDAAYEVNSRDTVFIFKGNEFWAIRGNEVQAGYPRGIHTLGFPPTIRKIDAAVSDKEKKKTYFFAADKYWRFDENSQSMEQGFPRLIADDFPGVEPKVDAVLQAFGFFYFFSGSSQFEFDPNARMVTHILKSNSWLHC
Sequence of Matrix metalloproteinase-9 (Homo sapiens) (P14780 whole entry, the tested form may be a part): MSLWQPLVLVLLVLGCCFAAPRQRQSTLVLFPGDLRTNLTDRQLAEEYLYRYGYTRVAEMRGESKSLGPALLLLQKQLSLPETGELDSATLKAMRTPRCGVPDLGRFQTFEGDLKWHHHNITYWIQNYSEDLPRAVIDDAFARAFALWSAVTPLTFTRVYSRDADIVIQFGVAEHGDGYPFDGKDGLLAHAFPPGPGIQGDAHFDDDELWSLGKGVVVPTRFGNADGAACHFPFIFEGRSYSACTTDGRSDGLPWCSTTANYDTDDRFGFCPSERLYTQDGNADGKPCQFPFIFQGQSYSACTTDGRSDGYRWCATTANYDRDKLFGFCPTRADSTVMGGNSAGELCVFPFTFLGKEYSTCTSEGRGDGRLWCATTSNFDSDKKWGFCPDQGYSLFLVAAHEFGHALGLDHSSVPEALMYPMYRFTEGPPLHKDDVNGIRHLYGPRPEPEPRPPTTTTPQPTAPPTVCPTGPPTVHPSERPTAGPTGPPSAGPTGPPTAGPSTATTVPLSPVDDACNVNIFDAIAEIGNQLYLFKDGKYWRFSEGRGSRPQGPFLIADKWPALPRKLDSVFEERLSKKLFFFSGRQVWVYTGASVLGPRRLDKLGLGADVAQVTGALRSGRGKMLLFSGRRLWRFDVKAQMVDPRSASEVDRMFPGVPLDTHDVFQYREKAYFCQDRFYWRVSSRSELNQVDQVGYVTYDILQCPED
Sequence of 72 kDa type IV collagenase (Homo sapiens) (P08253 110-660 limits assumed): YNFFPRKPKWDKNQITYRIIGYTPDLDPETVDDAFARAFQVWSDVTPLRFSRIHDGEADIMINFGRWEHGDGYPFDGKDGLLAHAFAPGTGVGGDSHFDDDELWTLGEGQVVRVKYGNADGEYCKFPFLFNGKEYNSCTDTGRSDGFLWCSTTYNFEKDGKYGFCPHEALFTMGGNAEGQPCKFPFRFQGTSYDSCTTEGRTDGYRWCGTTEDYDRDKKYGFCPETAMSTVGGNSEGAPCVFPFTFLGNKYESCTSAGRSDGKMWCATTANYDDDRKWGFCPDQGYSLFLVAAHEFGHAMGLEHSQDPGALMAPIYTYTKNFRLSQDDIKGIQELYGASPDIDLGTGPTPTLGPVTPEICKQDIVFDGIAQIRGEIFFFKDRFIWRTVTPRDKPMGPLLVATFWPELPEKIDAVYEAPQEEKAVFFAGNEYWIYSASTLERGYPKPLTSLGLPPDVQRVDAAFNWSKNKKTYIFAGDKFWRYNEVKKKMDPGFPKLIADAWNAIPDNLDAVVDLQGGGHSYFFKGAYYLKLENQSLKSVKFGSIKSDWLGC
Sequence of Neutrophil collagenase (Homo sapiens) (P22894 101-467 limits assumed): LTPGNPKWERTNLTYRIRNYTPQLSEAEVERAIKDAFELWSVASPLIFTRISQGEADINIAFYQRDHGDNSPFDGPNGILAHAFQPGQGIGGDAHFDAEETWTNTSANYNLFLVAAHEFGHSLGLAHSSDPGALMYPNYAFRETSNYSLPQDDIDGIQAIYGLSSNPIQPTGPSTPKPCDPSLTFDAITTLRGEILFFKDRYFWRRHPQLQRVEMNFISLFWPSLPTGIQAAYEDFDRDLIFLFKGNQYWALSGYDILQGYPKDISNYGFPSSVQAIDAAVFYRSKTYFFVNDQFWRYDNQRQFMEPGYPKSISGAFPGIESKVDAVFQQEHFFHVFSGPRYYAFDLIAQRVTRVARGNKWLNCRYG

Regarding `C[C@H](NC(=O)[C@H](C)NC(=O)[C@H](Cc1cc(-c2ccc(-c3cccc(Cl)c3)cc2)no1)CP(=O)(O)c1ccc(Br)cc1)C(N)=O`, the inhibition result in [1], in test [2], in test [4] and in test [6] was “inactive” in each case. Besides, the inhibition result in test [3], in test [5] and in test [7] was “Active” in each case. The same compound registered a Ki in test [8] of 0.28 nM.
On to `NC(=O)[C@H](CCC(=O)O)NC(=O)[C@H](CCC(=O)O)NC(=O)[C@H](Cc1cc(-c2ccccc2)no1)CP(=O)(O)c1ccc(Br)cc1`, for which the inhibition result in test [1], in test [2], in test [3], in [4], in [5] and in test [6] was “Active” throughout. For the same compound, the inhibition result in test [7] was “Active”. In [8], this compound had a Ki of 15.5 nM.
For the compound `NC(=O)[C@H](CCC(=O)O)NC(=O)[C@H](CCC(=O)O)NC(=O)[C@H](Cc1cc(-c2ccc(-c3cccc(Cl)c3)cc2)no1)CP(=O)(O)c1ccc(Br)cc1`, the Ki in [9] is 0.24 nM. In addition, the inhibition result in test [4] and in [5] was “Active” each time. In addition, in test [10], the INH turned out to be 0.044 nM.
In the case of `C[C@H](NC(=O)[C@H](C)NC(=O)[C@H](Cc1cc(-c2ccccc2)no1)CP(=O)(O)c1ccc(Br)cc1)C(N)=O`, the inhibition entry in test [4], in [10] and in test [5] was “Active” each time. The affinity in test [8], expressed as Ki, was 14.7 nM.
